Data on one compound can be found in patent US11351206B2, “Probiotic sports nutrition compositions” (Ganeden Biotech, Inc., priority 2011, dated 2022).

For the experiment, the system named is various bacterial pathogens. The experiment in a line: Zone of inhibition assay, positive control. Format: cell-based. As to conditions: 1 μl volume. The text has this:
The probiotic organisms described herein, e.g., Bacillus coagulans strain GBI-30 or GANEDEN BC-30™, ATCC Designation Number PTA-6086, promote digestive and oral health and support the immune system. The ability of Bacillus coagulans to inhibit various bacterial pathogens was quantitatively ascertained by use of an in vitro assay. This assay is part of a standardized bacterial pathogen screen (developed by the U.S. Food and Drug Administration (FDA)) and is commercially available on solid support disks (DIFCO® BACTROL® Antibiotic Disks). To perform the assay, potato-dextrose plates)(DIFCO® were initially prepared using standard procedures. The plates were then individually inoculated with the bacteria (approximately 1.5×10^6 CFU) to be tested so as to form a confluent bacterial bed.
Inhibition of microorganisms (e.g. gastrointestinal pathogens) by Bacillus coagulans was subsequently ascertained by placing approximately 1.8×10^6 CFU of Bacillus coagulans in 10 μl of broth or buffer, directly in the center of the potato-dextrose plate with one test locus being approximately 8 mm in diameter per plate. A minimum of three test loci were used for each assay. […] The plates were then incubated for approximately about 18 hr at 30° C., at which time the zones of inhibition were measured. […]

Consider `O=CCCCC=O` [glutaraldehyde], for which, where the note is “about 18 hr at 30° C.”, the inhibition entry was “excellent “inhibition””. Also, the “zone of inhibition diameter” value (average of three tests) is listed as “approximately 16.2 mm”.
